According to PubChem BioAssay AID2060614 (Molecular Pharmacology Branch, DTP, NCI, 2025):
“And” between values parts separate entries of the source, which are not always exact repeats. Equal entries are not always repeated.

Tested on: 598228-144-R-J1-PDC complex spheroids, viability
Test: Anticancer human tumor 598228-144-R-J1-PDC patient-derived serous endometrial adenocarcinoma cell line growth inhibition [CLK]
Conditions: for viability, T/C: stronger effect = lower value
In short: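 Patient-derived tumor cells grown as complex spheroids with HUVEC endothelial cells and mesenchymal stem cells, treated with drug combinations. Concentrations descend in half-log steps from near clinical Cmax, or from 10 microM if Cmax unknown.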

[1] = curve of first compound, second compound 0.0316 µM
[2] = curve of first compound, second compound 0.1 µM
[3] = curve of first compound, second compound 0.316 µM
[4] = curve of first compound, second compound 1 µM
[5] = curve of first compound, second compound 3.16 µM
[6] = curve of first compound, second compound 10 µM
[7] = second compound 0.0316 µM, first compound 0.0316 µM
[8] = second compound 0.0316 µM, first compound 0.1 µM
[9] = second compound 0.0316 µM, first compound 0.316 µM
[10] = second compound 0.0316 µM, first compound 1 µM
[11] = second compound 0.0316 µM, first compound 3.16 µM
[12] = second compound 0.0316 µM, first compound 10 µM
[13] = second compound 0.1 µM, first compound 0.0316 µM
[14] = second compound 0.1 µM, first compound 0.1 µM
[15] = second compound 0.1 µM, first compound 0.316 µM
[16] = second compound 0.1 µM, first compound 1 µM
[17] = second compound 0.1 µM, first compound 3.16 µM
[18] = second compound 0.1 µM, first compound 10 µM
[19] = second compound 0.316 µM, first compound 0.0316 µM
[20] = second compound 0.316 µM, first compound 0.1 µM
[21] = second compound 0.316 µM, first compound 0.316 µM
[22] = second compound 0.316 µM, first compound 1 µM
[23] = second compound 0.316 µM, first compound 3.16 µM
[24] = second compound 0.316 µM, first compound 10 µM
[25] = second compound 1 µM, first compound 0.0316 µM
[26] = second compound 1 µM, first compound 0.1 µM
[27] = second compound 1 µM, first compound 0.316 µM
[28] = second compound 1 µM, first compound 1 µM
[29] = second compound 1 µM, first compound 3.16 µM
[30] = second compound 1 µM, first compound 10 µM
[31] = second compound 3.16 µM, first compound 0.0316 µM
[32] = second compound 3.16 µM, first compound 0.1 µM
[33] = second compound 3.16 µM, first compound 0.316 µM
[34] = second compound 3.16 µM, first compound 1 µM
[35] = second compound 3.16 µM, first compound 3.16 µM
[36] = second compound 3.16 µM, first compound 10 µM
[37] = second compound 10 µM, first compound 0.0316 µM
[38] = second compound 10 µM, first compound 0.1 µM
[39] = second compound 10 µM, first compound 0.316 µM
[40] = second compound 10 µM, first compound 1 µM
[41] = second compound 10 µM, first compound 3.16 µM
[42] = second compound 10 µM, first compound 10 µM
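Also: spheroids exposed to compounds for seven days before readout.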
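For viability, T/C in this document: 100% = DMSO vehicle control wells.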

Nc1ccn(C2OC(CO)C(O)C2(F)F)c(=O)n1 (stereo unspecified) + CN1CCN(c2cc(C(=O)Nc3cc4cc(-c5cnn(C)c5)ccc4cn3)ccn2)CC1
IC50 [1]: < 0.0316 µM | IC50 [2]: < 0.0316 µM | IC50 [3]: < 0.0316 µM | IC50 [4]: < 0.0316 µM | IC50 [5]: < 0.0316 µM | IC50 [6]: < 0.0316 µM | viability, T/C [7]: 42.6% | viability, T/C [8]: 23.5% | viability, T/C [9]: 24.3% | viability, T/C [10]: 21.2% | viability, T/C [11]: 23.4% | viability, T/C [12]: 28.3% | viability, T/C [13]: 46.5% | viability, T/C [14]: 26.8% | viability, T/C [15]: 25.4% | viability, T/C [16]: 28.5% | viability, T/C [17]: 28.5% | viability, T/C [18]: 29.5% | viability, T/C [19]: 18% | viability, T/C [20]: 16.9% | viability, T/C [21]: 14% | viability, T/C [22]: 15.4% | viability, T/C [23]: 17% | viability, T/C [24]: 16.9% | viability, T/C [25]: 3.9% | viability, T/C [26]: 1.1% | viability, T/C [27]: 2.41% | viability, T/C [28]: 1.35% | viability, T/C [29]: 2.84% | viability, T/C [30]: 4.14% | viability, T/C [31]: 1.84% | viability, T/C [32]: 4.4% | viability, T/C [33]: 1.37% | viability, T/C [34]: 1.5% | viability, T/C [35]: 5.71% | viability, T/C [36]: 5.03% | viability, T/C [37]: 0.74% | viability, T/C [38]: 0.77% | viability, T/C [39]: 2.69% | viability, T/C [40]: 0.88% | viability, T/C [41]: 5.39% | viability, T/C [42]: 1.96%

C=C(F)C(=O)N1CCN(c2nc(OCC3CCCN3C)nc3c2CCN(c2cccc4cccc(Cl)c24)C3)CC1CC#N (stereo unspecified) + CNC(=O)c1ccc(Nc2nc(OC3CCCC3)c3c(-c4ccc5nc(C)oc5c4)c[nH]c3n2)c(OC)c1
IC50 [1]: 5.08 µM | IC50 [2]: 5.07 µM | IC50 [3]: 5.08 µM | IC50 [4]: 4.6 µM | IC50 [5]: 4.83 µM | IC50 [6]: 4.05 µM | viability, T/C [7]: 108% | viability, T/C [8]: 115% | viability, T/C [9]: 98.6% | viability, T/C [10]: 99.7% | viability, T/C [11]: 85.7% | viability, T/C [12]: 1.18% | viability, T/C [13]: 104% | viability, T/C [14]: 101% | viability, T/C [15]: 96.2% | viability, T/C [16]: 97.7% | viability, T/C [17]: 81.5% | viability, T/C [18]: 4.78% | viability, T/C [19]: 102% | viability, T/C [20]: 98.6% | viability, T/C [21]: 89.3% | viability, T/C [22]: 107% | viability, T/C [23]: 83.9% | viability, T/C [24]: 1.64% | viability, T/C [25]: 100% | viability, T/C [26]: 89.7% | viability, T/C [27]: 89.3% | viability, T/C [28]: 92.4% | viability, T/C [29]: 72.9% | viability, T/C [30]: 2.52% | viability, T/C [31]: 85.3% | viability, T/C [32]: 90.9% | viability, T/C [33]: 92.9% | viability, T/C [34]: 91.1% | viability, T/C [35]: 77.3% | viability, T/C [36]: 3.14% | viability, T/C [37]: 86.3% | viability, T/C [38]: 82.7% | viability, T/C [39]: 83.4% | viability, T/C [40]: 80.8% | viability, T/C [41]: 62.8% | viability, T/C [42]: 3.36%

CCN1CCN(Cc2ccc(Nc3ncc(F)c(-c4cc(F)c5nc(C)n(C(C)C)c5c4)n3)nc2)CC1
viability, T/C (compound 0.00316 µM): 99.8% and 91.7% | viability, T/C (compound 0.01 µM): 94.1% and 88% | viability, T/C (compound 0.0316 µM): 92.4% and 109% | viability, T/C (compound 0.1 µM): 99.5% and 96.7% | viability, T/C (compound 0.316 µM): 103% and 93.4% | viability, T/C (compound 1 µM): 92.4% and 82.3% | IC50 (curve of compound): > 1 µM
